This note sets out measurements from US11771709B2, “ALK protein degradation agent and anti-tumor application thereof” (ShanghaiTech University, priority 2017, dated 2023).

The structures appear in SMILES notation.

Holding throughout (assay type): cell-based
The target in test [1] is T1, ALK protein in H3122 (EML4-ALK) cells (Homo sapiens, UniProt Q9UM73).
T1 construct: EML4 (Echinoderm microtubule-associated protein-like 4, Q9HC35) fusion partner, variant 1; host or cells: NCI-H3122 lung adenocarcinoma cells; the other entry of the earlier key: EML4 (Q9HC35, Echinoderm microtubule-associated protein-like 4)
T1 sequence (Q9UM73 with tags, fused parts or gaps): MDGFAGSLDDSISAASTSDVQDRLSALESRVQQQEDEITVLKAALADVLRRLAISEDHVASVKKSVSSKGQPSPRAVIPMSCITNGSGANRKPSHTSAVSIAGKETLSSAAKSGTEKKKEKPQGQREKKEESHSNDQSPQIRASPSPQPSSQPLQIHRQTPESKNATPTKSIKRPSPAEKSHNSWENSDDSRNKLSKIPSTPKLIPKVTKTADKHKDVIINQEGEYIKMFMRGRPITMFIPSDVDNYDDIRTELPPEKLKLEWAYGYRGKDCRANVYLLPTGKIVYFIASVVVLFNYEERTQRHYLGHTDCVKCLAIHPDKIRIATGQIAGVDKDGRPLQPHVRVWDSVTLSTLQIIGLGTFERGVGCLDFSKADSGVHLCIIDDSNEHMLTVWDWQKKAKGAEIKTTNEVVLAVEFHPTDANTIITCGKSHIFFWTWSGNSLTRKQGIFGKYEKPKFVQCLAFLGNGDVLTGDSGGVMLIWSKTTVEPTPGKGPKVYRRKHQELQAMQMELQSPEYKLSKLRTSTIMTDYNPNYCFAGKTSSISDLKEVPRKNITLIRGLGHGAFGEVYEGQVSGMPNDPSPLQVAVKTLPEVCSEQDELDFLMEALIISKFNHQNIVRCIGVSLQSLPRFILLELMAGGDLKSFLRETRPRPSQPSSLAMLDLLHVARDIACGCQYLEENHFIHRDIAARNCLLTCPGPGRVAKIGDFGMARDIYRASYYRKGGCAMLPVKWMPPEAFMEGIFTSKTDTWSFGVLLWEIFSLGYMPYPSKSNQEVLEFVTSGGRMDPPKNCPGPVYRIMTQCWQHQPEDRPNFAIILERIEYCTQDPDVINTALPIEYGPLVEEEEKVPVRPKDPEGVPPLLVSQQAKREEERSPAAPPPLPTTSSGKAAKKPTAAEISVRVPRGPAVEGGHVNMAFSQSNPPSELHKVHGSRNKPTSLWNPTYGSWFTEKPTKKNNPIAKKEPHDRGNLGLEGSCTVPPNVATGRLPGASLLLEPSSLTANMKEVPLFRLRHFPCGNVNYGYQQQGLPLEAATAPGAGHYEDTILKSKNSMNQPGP
As to the kind of experiment: Western blot of ALK protein level (degradation, DC50), ALK phosphorylation and downstream signaling in H3122 cells. The conditions noted are these: ALK protein degradation in H3122 cells. In general terms: Immunoblotting shows a protein as a band on a membrane.

In test [2] the target is T2, ALK protein in SR (NPM-ALK) cells (Homo sapiens, UniProt Q9UM73).
T2 construct: NPM (nucleophosmin, NPM1, P06748) fusion partner; host or cells: SR (ALCL) cells; the other entry of the earlier key: NPM1 (P06748, Nucleophosmin)
T2 sequence (Q9UM73 with tags, fused parts or gaps): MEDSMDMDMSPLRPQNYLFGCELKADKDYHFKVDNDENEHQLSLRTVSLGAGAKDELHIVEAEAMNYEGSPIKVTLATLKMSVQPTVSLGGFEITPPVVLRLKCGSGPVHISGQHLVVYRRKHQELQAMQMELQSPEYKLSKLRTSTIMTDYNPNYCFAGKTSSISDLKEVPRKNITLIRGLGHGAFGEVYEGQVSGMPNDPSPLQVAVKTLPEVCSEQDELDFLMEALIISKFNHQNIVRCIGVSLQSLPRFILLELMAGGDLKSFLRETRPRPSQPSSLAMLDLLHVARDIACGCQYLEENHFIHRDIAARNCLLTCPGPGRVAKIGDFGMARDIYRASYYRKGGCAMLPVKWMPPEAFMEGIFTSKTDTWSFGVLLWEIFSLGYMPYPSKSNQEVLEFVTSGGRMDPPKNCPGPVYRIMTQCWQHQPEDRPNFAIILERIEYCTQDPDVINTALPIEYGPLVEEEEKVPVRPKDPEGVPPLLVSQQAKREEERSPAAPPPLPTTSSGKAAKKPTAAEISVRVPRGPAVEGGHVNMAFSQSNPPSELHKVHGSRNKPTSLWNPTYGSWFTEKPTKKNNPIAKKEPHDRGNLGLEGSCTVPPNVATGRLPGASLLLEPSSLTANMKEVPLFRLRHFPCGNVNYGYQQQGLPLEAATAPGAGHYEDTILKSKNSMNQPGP
Briefly: Western blot of ALK protein level (degradation, DC50), ALK phosphorylation and downstream signaling in SR cells. The note with it: for DC50: ALK protein degradation in SR cells.

The next test deals with SR (NPM-ALK) cells. As to the kind of experiment: Growth inhibition IC50 in ALCL SR cells (CCK8/WST, 72 hours). The note with it: SR cells, WST.
Where [3] appears, read: 72 h, Brigatinib-based PROTAD molecules (Table 3).
Setting [4] is: Alectinib based ALK PROTAD compounds (Table 4).

`COc1cc(N2CCC(N3CCN(C(=O)CCOCCOCCOCCNc4cccc5c4C(=O)N(C4CCC(=O)NC4=O)C5=O)CC3)CC2)ccc1Nc1ncc(Cl)c(Nc2ccccc2P(C)(C)=O)n1` (stereo not shown) [SIAIS164009, 4-((2-(2-(2-(3-(4-(1-(4-((5-chloro-4-((2-(dimethylphosphoryl)phenyl)amino)pyrimidin-2-yl)amino)-3-methoxyphenyl)piperidin-4-yl)piperazin-1-yl)-3-oxopropoxy)ethoxy)ethoxy)ethyl)amino)-2-(2,6-dioxopiperidin-3-yl)isoindoline-1,3-dione]: the 50% degradation concentration (DC50) in test [1] and in test [2] was 1 to 10 nM in each case. In addition, the “concentration at which ALK proteins were degraded” value in test [2] (SR cells, western blot) is recorded as 1 nM. For the same compound, half-maximal inhibition in the test with SR (NPM-ALK) cells (setting [3]) (IC50) was put at 5.3 ± 1.7 nM.

For `CCc1cc2c(cc1N1CCN(C(=O)CCOCCOCCNc3cccc4c3C(=O)N(C3CCC(=O)NC3=O)C4=O)CC1)C(C)(C)c1[nH]c3cc(C#N)ccc3c1C2=O` (stereo not shown) [SIAIS164012, 8-(4-(3-(2-(2-((2-(2,6-dioxopiperidin-3-yl)-1,3-dioxoisoindolin-4-yl)amino)ethoxy)ethoxy)propanoyl)piperazin-1-yl)-9-ethyl-6,6-dimethyl-11-oxo-6,11-dihydro-5H-benzo[b]carbazole-3-carbonitrile], the DC50 in test [1] and in test [2] was 1 to 50 nM in each case. Further, the midpoint of inhibition with SR (NPM-ALK) cells (setting [4]), the IC50, lay at 48.9 nM.

Take `COc1cc(N2CCC(N3CCN(C(=O)CCOCCOCCOCCOCCNc4cccc5c4C(=O)N(C4CCC(=O)NC4=O)C5=O)CC3)CC2)ccc1Nc1ncc(Cl)c(Nc2ccccc2P(C)(C)=O)n1` (stereo not shown) [SIAIS164016, 4-((15-(4-(1-(4-((5-chloro-4-((2-(dimethylphosphoryl)phenyl)amino)pyrimidin-2-yl)amino)-3-methoxyphenyl)piperidin-4-yl)piperazin-1-yl)-15-oxo-3,6,9,12-tetraoxapentadecyl)amino)-2-(2,6-dioxopiperidin-3-yl)isoindoline-1,3-dione]: the half-maximal degradation concentration (DC50) in test [1] and in test [2] was 1 to 10 nM each time. Further, the IC50 in the test with SR (NPM-ALK) cells (setting [3]) turned out to be 11.2 ± 6.8 nM.

As for `COc1cc(N2CCC(N3CCN(C(=O)CCOCCOCCOCCOCCOCCNc4cccc5c4C(=O)N(C4CCC(=O)NC4=O)C5=O)CC3)CC2)ccc1Nc1ncc(Cl)c(Nc2ccccc2P(C)(C)=O)n1` (stereo not drawn) [SIAIS164017, 4-((18-(4-(1-(4-((5-chloro-4-((2-(dimethylphosphoryl)phenyl)amino)pyrimidin-2-yl)amino)-3-methoxyphenyl)piperidin-4-yl)piperazin-l-yl)-18-oxo-3,6,9,12,15-pentaoxaoctadecyl)amino)-2-(2,6-dioxopiperidin-3-yl)isoindoline-1,3-dione], the “DC50 (nM)) in H3122” value in test [1] lay within 0.02 to 20 nM. In addition, in test [2], the DC50 lay within 100 to 500 nM. The same compound gave an IC50 with SR (NPM-ALK) cells (setting [3]) of 14 ± 8.6 nM.

Take `COc1cc(N2CCC(N3CCN(C(=O)CCNc4cccc5c4C(=O)N(C4CCC(=O)NC4=O)C5=O)CC3)CC2)ccc1Nc1ncc(Cl)c(Nc2ccccc2P(C)(C)=O)n1` (stereo not shown) [SIAIS164019, 4-((3-(4-(1-(4-((5-chloro-4-((2-(dimethylphosphoryl)phenyl)amino)pyrimidin-2-yl)amino)-3-methoxyphenyl)piperidin-4-yl)piperazin-1-yl)-3-oxopropyl)amino)-2-(2,6-dioxopiperidin-3-yl)isoindoline-1,3-dione]: the figures for the 50% degradation concentration (DC50) in test [1] and in test [2] were 10 to 20 nM and 1 to 10 nM, respectively. The compound further had an IC50 in the test with SR (NPM-ALK) cells (setting [3]) of 9.6 ± 8 nM.

`COc1cc(N2CCC(N3CCN(C(=O)CCCNc4cccc5c4C(=O)N(C4CCC(=O)NC4=O)C5=O)CC3)CC2)ccc1Nc1ncc(Cl)c(Nc2ccccc2P(C)(C)=O)n1` (stereo not shown) [SIAIS164020, 4-((4-(4-(1-(4-((5-chloro-4-((2-(dimethylphosphoryl)phenyl)amino)pyrimidin-2-yl)amino)-3-methoxyphenyl)piperidin-4-yl)piperazin-1-yl)-4-oxobutyl)amino)-2-(2,6-dioxopiperidin-3-yl)isoindoline-1,3-dione]: the values for the half-maximal degradation concentration (DC50) in test [1] and in test [2] were 1 to 50 nM and 0.5 to 10 nM, respectively. The compound also displayed an IC50 in the test on SR (NPM-ALK) cells (setting [3]) of 2.9 ± 1.5 nM.

Turning to `CCc1cc2c(cc1N1CCN(C(=O)CNc3cccc4c3C(=O)N(C3CCC(=O)NC3=O)C4=O)CC1)C(C)(C)c1[nH]c3cc(C#N)ccc3c1C2=O` (stereo not shown) [SIAIS164028, 8-(4-((2-(2,6-dioxopiperidin-3-yl)-1,3-dioxoisoindolin-4-yl)glycyl)piperazin-1-yl)-9-ethyl-6,6-dimethyl-11-oxo-6,11-dihydro-5H-benzo[b]carbazole-3-carbonitrile], the values for the 50% degradation concentration (DC50) in test [1] and in test [2] were 1 to 10 nM and 1 to 50 nM, respectively. Moreover, the IC50 with SR (NPM-ALK) cells (setting [4]) was 19.7 nM.

Turning to `COc1cc(N2CCC(N3CCN(C(=O)CCOCCOCCC(=O)N[C@H](C(=O)N4C[C@H](O)C[C@H]4C(=O)NCc4ccc(-c5scnc5C)cc4)C(C)(C)C)CC3)CC2)ccc1Nc1ncc(Cl)c(Nc2ccccc2P(C)(C)=O)n1` [SIAIS164032, (2S,4R)-1-((S)-2-(3-(2-(3-(4-(1-(4-((5-chloro-4-((2-(dimethylphosphoryl)phenyl)amino)pyrimidin-2-yl)amino)-3-methoxyphenyl)piperidin-4-yl)piperazin-1-yl)-3-oxopropoxy)ethoxy)propanamido)-3,3-dimethylbutanoyl)-4-hydroxy-N-(4-(4-methylthiazol-5-yl)benzyl)pyrrolidine-2-carboxamide], the DC50 was in the range of 20 to 100 nM in test [1] and 100 to 500 nM in test [2]. In addition, the IC50 in the test on SR (NPM-ALK) cells (setting [3]) was found to be 54.5 ± 31.2 nM.

On to `COc1cc(N2CCC(N3CCN(C(=O)CCOCCOCCOCCC(=O)N[C@H](C(=O)N4C[C@H](O)C[C@H]4C(=O)NCc4ccc(-c5scnc5C)cc4)C(C)(C)C)CC3)CC2)ccc1Nc1ncc(Cl)c(Nc2ccccc2P(C)(C)=O)n1` [SIAIS164033, (2S,4R)-1-((S)-2-(tert-butyl)-16-(4-(1-(4-((5-chloro-4-((2-(dimethylphosphoryl)phenyl)amino)pyrimidin-2-yl)amino)-3-methoxyphenyl)piperidin-4-yl)piperazin-1-yl)-4,16-dioxo-7,10,13-trioxa-3-azahexadecanoyl)-4-hydroxy-N-(4-(4-methylthiazol-5-yl)benzyl)pyrrolidine-2-carboxamide], for which the DC50 in test [1] and in test [2] was 100 to 500 nM each time. The compound also displayed a concentration for half-maximal inhibition (IC50) in the test with SR (NPM-ALK) cells (setting [3]) of 50.1 ± 34.9 nM.

On to `COc1cc(N2CCC(N3CCN(C(=O)CCOCCOCCOCCOCCC(=O)N[C@H](C(=O)N4C[C@H](O)C[C@H]4C(=O)NCc4ccc(-c5scnc5C)cc4)C(C)(C)C)CC3)CC2)ccc1Nc1ncc(Cl)c(Nc2ccccc2P(C)(C)=O)n1` [SIAIS164034, (2S,4R)-1-((S)-2-(tert-butyl)-19-(4-(1-(4-((5-chloro-4-((2-(dimethylphosphoryl)phenyl)amino)pyrimidin-2-yl)amino)-3-methoxyphenyl)piperidin-4-yl)piperazin-1-yl)-4,19-dioxo-7,10,13,16-tetraoxa-3-azanonadecanoyl)-4-hydroxy-N-(4-(4-methylthiazol-5-yl)benzyl)pyrrolidine-2-carboxamide], for which the DC50 in test [1] and in test [2] was 100 to 500 nM throughout. For the same compound, in the test with SR (NPM-ALK) cells (setting [3]), the concentration for half-maximal inhibition (IC50) is 88.6 ± 63 nM.

With `COc1cc(N2CCC(N3CCN(C(=O)CCOCCOCCOCCOCCOCCC(=O)N[C@H](C(=O)N4C[C@H](O)C[C@H]4C(=O)NCc4ccc(-c5scnc5C)cc4)C(C)(C)C)CC3)CC2)ccc1Nc1ncc(Cl)c(Nc2ccccc2P(C)(C)=O)n1` [SIAIS164035, (2S,4R)-1-((S)-2-(tert-butyl)-22-(4-(1-(4-((5-chloro-4-((2-(dimethylphosphoryl)phenyl)amino)pyrimidin-2-yl)amino)-3-methoxyphenyl)piperidin-4-yl)piperazin-1-yl)-4,22-dioxo-7,10,13,16,19-pentaoxa-3-azadocosanoyl)-4-hydroxy-N-(4-(4-methylthiazol-5-yl)benzyl)pyrrolidine-2-carboxamide], the DC50 in test [1] and in test [2] was 100 to 500 nM each time. This compound also had an IC50 in the test with SR (NPM-ALK) cells (setting [3]) of 41.8 ± 24.7 nM.

For `COc1cc(N2CCC(N3CCN(C(=O)COCCOCC(=O)N[C@H](C(=O)N4C[C@H](O)C[C@H]4C(=O)NCc4ccc(-c5scnc5C)cc4)C(C)(C)C)CC3)CC2)ccc1Nc1ncc(Cl)c(Nc2ccccc2P(C)(C)=O)n1` [SIAIS164041, (2S,4R)-1-((S)-2-(2-(2-(2-(4-(1-(4-((5-chloro-4-((2-(dimethylphosphoryl)phenyl)amino)pyrimidin-2-yl)amino)-3-methoxyphenyl)piperidin-4-yl)piperazin-1-yl)-2-oxoethoxy)ethoxy)acetamido)-3,3-dimethylbutanoyl)-4-hydroxy-N-(4-(4-methylthiazol-5-yl)benzyl)pyrrolidine-2-carboxamide], the DC50 lay in the range of 10 to 500 nM in test [1] and 10 to 50 nM in test [2]. The compound also came in with a concentration for half-maximal inhibition (IC50) in the test on SR (NPM-ALK) cells (setting [3]) of 42.7 ± 29.4 nM.

Turning to `COc1cc(N2CCC(N3CCN(C(=O)CCC(=O)N[C@H](C(=O)N4C[C@H](O)C[C@H]4C(=O)NCc4ccc(-c5scnc5C)cc4)C(C)(C)C)CC3)CC2)ccc1Nc1ncc(Cl)c(Nc2ccccc2P(C)(C)=O)n1` [SIAIS164120, (2S,4R)-1-((S)-2-(4-(4-(1-(4-((5-chloro-4-((2-(dimethylphosphoryl)phenyl)amino)pyrimidin-2-yl)amino)-3-methoxyphenyl)piperidin-4-yl)piperazin-1-yl)-4-oxobutanamido)-3,3-dimethylbutanoyl)-4-hydroxy-N-(4-(4-methylthiazol-5-yl)benzyl)pyrrolidine-2-carboxamide], the 50% degradation concentration (DC50) in test [1] lay in the range of 10 to 100 nM; in test [2] it was 1 to 10 nM. Further, in the test with SR (NPM-ALK) cells (setting [3]), the midpoint of inhibition, the IC50, lay at 19.2 ± 8.8 nM.

One may read the DC50 as the concentration giving 50% degradation. Low values mean degradation at low concentration, high ones degradation only at high concentration. For orientation: IC50 means the concentration that inhibits the measured activity by half.
